Laboratory results reported in patent US11191811B2, “Osteocalcin as a treatment for frailty associated with aging” (THE TRUSTEES OF COLUMBIA UNIVERSITY IN THE CITY OF NEW YORK, priority 2014, dated 2021).

Assays:
Gprc6a−/− myotubes = experiment: 3H-2-deoxyglucose uptake in myotubes; type: cell-based, mouse; conditions: serum-free conditions
Procedure: (§1) The main nutrient used by muscle to generate energy at the onset of exercise is glucose and osteocalcin increased the uptake of ^3H-2-deoxyglucose (^3H-2DG) in WT but not in Gprc6a−/− myotubes (FIG. 26D-E). To exclude the involvement of other secreted molecules, this experiment was performed in serum-free conditions. […] This decrease in glucose uptake in muscles of Gprc6aMck−/− mice provides an explanation for why blood glucose levels were two-fold higher in Gprc6aMck−/− and Gprc6aHsa−/− than in control mice after exercise (FIG. 26G-H).
(§2) Glucose and insulin tolerance tests were performed as previously described (Lee et al., 2007, Cell 130:456-469). For in vivo glucose uptake, a bolus of 2-deoxy-d-[^3H]glucose (^3H-2-DG, Perkin Elmer) (10 μCi) was administered before an endurance run. ^3H-2-DG and ^3H-2-DG-6-P content in muscle was determined by liquid scintillation counter and normalized to muscle weight. Glucose uptake and fatty acid oxidation assays in myotubes were performed as previously described (Sebastian et al., 2007, Am. J. Physiol. Endocrinol. Metab. 292:E667-686). GLUT4 translocation was determined by flow cytometry using an antibody against the extracellular domain of the GLUT4 protein (Santa Cruz, Sc-1606). Measurements of oxygen consumption rates (OCR) in isolated myofibers were performed using a XF24 Seahorse Analyzer® (Seahorse Biosciences). To analyze mitochondrial function, myofibers were treated with three compounds in succession (oligomycin 10 μg/ml, FCCP 200 μM, rotenone 0.2 μM) and OCR was recorded following administration of each of them.
(§3) Culture of skeletal muscle myoblasts from 7 day-old mice was performed as described (Gharaibeh et al., 2008, Nature Protocols 3:1501-1509). Myoblasts were differentiated into myotubes for 3-4 days in a medium containing 5% horse serum. Muscle fibers were isolated from flexor digitorum brevis muscle. Muscles were dissected with DMEM 2% collagenase for 2 hours at 37° C., in a 5% CO2 incubator. […]

WT myotubes = experiment: 3H-2-deoxyglucose uptake in myotubes; type: cell-based, mouse
Procedure: as §1, §2, §3

[1] = Osteocalcin in blood of ICV-infused Osteocalcin−/− mice; type: in vivo, mouse; conditions: ICV infusion 10 ng/hour
Procedure: For osteocalcin delivery to pregnant mice, IP injections (240 ng/day) were performed as soon as a plug was present daily until delivery (E0.5-E18.5). For osteocalcin or leptin infusion in adult Osteocalcin^−/− or ob/ob mice, pumps (Alzet micro-osmotic pump, Model 1002) delivering osteocalcin (300 ng/hr), leptin (50 ng/hr), or vehicle were surgically installed subcutaneously in the backs of 3-month old mice. For the postnatal rescue of cognitive functions in Osteocalcin^−/− mice, osteocalcin (10 ng/hour) or vehicle were delivered intrasubventricularly (icv) as previously described (Ducy et al., 2000, Cell 100:197-207). Leptin and osteocalcin content in sera and tissues were determined by ELISA.
The pharmacological relevance of this ability of osteocalcin to signal in neurons was established by delivering uncarboxylated osteocalcin through intracerebro-ventricular (ICV) infusions (10 ng/hour) in WT and Osteocalcin^−/− mice. The localization of the cannula was verified by administering methylene blue through these pumps. […] This week-long treatment with uncarboxylated osteocalcin corrected the anxiety and depression features noted in Osteocalcin^−/− mice (FIG. 12A-E). Collectively, the results described herein indicate that osteocalcin alleviates anxiety and depression in the mouse by acting directly in the brain.

aged WT mice = experiment: Novel Object Recognition test in aged WT mice with ICV infusion; type: in vivo, mouse
Procedure: FIG. 15. Osteocalcin improves hippocampal function in aged wild-type (WT) mice. Constant and novel object investigation in the Novel Object Recognition test in 17 month old mice treated for 1 month with vehicle or 10 ng/hr recombinant uncarboxylated osteocalcin.
ICV pumps delivering (10 ng/hr) recombinant uncarboxylated full-length mouse osteocalcin were implanted in 16 month old WT mice. After an infusion period of one month, the mice were subjected to a modified version of the Novel Object Recognition test, to assay memory and hippocampal function. Briefly, mice were given five 5 minute exposures, with 3 minute resting intervals between exposures, to a novel arena containing two objects. During exposures 1-4, mice were habituated to these two objects, which elicited equal amounts of exploration. In the fifth exposure, one of the objects was replaced with a novel object.

[2] = Crossing of the blood-brain barrier; conditions: stated without test description

uncarboxylated osteocalcin: Recombinant uncarboxylated mouse osteocalcin, bacterially produced, purified on glutathione beads and cleaved from the GST subunit by thrombin (YLGASVPSPDPLEPTREQCELNPACDELSDQYGLKTAYKRIYGITI)
uptake of 3H-2-deoxyglucose (3H-2DG) (Gprc6a−/− myotubes): not | uptake of 3H-2-deoxyglucose (3H-2DG) (WT myotubes; WT myotubes, serum-free conditions): increased | glucose uptake (WT myotubes; as worded in FIG. 19 (wild-type) and summary (in muscle)): favors | leakage of the centrally delivered hormone into the general circulation [1]: no leakage | time exploring the novel object (aged WT mice; 10 ng/hr ICV for one month, 16 month old WT mice, versus vehicle alone): less time | discrimination between the novel and constant objects (aged WT mice; 10 ng/hr ICV for one month, aged mice): able to discriminate | hippocampal function (aged WT mice; aged WT mice (FIG. 15 title)): improves | crossing of the blood-brain barrier [2]: crosses | crossing of the blood-brain barrier ([2]; listed as undercarboxylated/uncarboxylated osteocalcin): can cross
